The text below walks through data of the Kinase Knowledgebase extract (Sharma et al. 2016).

Usually IC50 stands for the concentration at which inhibition is half-maximal.

Values after ≈ are worked out from the molar mass of the structure shown.

In the first test the target is EGFR (UniProt P00533).
EGFR, sequence (P00533 whole entry, looked up): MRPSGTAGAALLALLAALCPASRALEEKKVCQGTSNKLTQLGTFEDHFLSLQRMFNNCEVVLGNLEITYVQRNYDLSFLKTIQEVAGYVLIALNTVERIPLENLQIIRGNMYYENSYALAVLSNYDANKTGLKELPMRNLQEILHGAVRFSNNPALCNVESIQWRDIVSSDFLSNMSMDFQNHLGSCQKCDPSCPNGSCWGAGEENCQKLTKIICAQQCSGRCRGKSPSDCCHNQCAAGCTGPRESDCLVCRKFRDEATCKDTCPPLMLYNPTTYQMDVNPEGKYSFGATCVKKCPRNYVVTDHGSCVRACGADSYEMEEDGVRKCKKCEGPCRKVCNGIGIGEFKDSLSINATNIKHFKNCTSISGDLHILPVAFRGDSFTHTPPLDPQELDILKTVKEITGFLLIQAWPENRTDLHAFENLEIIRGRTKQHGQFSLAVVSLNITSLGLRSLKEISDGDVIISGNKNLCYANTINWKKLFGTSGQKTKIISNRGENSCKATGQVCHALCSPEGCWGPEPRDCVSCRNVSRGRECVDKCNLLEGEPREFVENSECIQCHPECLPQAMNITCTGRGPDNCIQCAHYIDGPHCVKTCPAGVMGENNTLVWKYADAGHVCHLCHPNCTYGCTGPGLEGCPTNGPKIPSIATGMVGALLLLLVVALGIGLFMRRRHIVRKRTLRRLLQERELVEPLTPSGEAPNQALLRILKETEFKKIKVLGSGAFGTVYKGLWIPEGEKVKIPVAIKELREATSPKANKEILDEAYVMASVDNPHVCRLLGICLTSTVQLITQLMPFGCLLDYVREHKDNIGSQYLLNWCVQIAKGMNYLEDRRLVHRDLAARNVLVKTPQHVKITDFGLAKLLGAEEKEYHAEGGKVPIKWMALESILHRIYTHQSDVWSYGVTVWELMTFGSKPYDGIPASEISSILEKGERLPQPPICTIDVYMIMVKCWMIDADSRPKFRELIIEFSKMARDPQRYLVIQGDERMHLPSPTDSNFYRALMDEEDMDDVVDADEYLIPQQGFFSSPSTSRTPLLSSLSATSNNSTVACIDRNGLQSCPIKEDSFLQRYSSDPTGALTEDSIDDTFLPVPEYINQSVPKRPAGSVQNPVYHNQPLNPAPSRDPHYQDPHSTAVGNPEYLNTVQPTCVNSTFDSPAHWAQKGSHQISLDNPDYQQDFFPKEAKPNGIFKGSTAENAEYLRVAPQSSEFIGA
Conditions: not given
The compound `CCOc1cc2ncc(C#N)c(Nc3ccc(OCc4ccccc4)c(Cl)c3)c2cc1NC(=O)/C=C/CN(C)C` displayed an IC50 of 0.028 µg/mL (≈ 0.0504 µM).

For `CCOc1cc2ncc(C#N)c(Nc3ccc(OCc4cccc(F)c4)c(Cl)c3)c2cc1NC(=O)/C=C/CN(C)C`, the IC50 is 0.019 µg/mL (≈ 0.0331 µM).

For another test, the target named is EGFR (human) (UniProt P00533). Particulars: a431.
EGFR (human), sequence (P00533 whole entry, looked up): as above
`CCOc1cc2ncc(C#N)c(Nc3ccc(Sc4nccc(C)n4)c(Cl)c3)c2cc1[N+](=O)[O-]` returned an IC50 of 1.2 µg/mL (≈ 2.43 µM).

Regarding `COc1cc2ncc(C#N)c(Nc3ccc4cn[nH]c4c3)c2cc1OCCCN1CCOCC1`, the IC50 is greater than 5 µg/mL.

Turning to `C=CC(=O)Nc1ccc2ncc(C#N)c(Nc3ccc(Sc4nccn4C)c(Cl)c3)c2c1`, the IC50 amounted to 0.62 µg/mL (≈ 1.35 µM).

On to `COCCN(C)C/C=C/C(=O)Nc1cc2c(Nc3ccc(Sc4nccs4)c(Cl)c3)c(C#N)cnc2cc1OC`, for which the IC50 was found to be 0.03 µg/mL (≈ 0.0504 µM).

For `COc1cc2c(Nc3ccc(Sc4nccn4C)c(Cl)c3)c(C#N)cnc2cc1OCCCN1CCOCC1`, the IC50 is 0.775 µg/mL (≈ 1.37 µM).

In turn, `CCOc1cc2ncc(C#N)c(Nc3ccc(Sc4nc(C)cc(C)n4)c(Cl)c3)c2cc1[N+](=O)[O-]` came in with an IC50 greater than 5 µg/mL.

With `CCOc1cc2ncc(C#N)c(Nc3ccc(Sc4nccc(C)n4)c(Cl)c3)c2cc1N`, the IC50 was 1.53 µg/mL (≈ 3.3 µM).

With `CCOc1cc2ncc(C#N)c(Nc3ccc4cn[nH]c4c3)c2cc1OC`, the IC50 stood at 0.0368 µg/mL (≈ 0.102 µM).

Compound `COc1cc2ncc(C#N)c(Nc3ccc(Sc4nccs4)c(Cl)c3)c2cc1[N+](=O)[O-]` registered an IC50 of 0.148 µg/mL (≈ 0.315 µM).

In turn, `CCOc1cc2ncc(C#N)c(Nc3ccc(Nc4nnc(C(F)(F)F)s4)c(Cl)c3)c2cc1N` gave an IC50 greater than 5 µg/mL.

`CCOc1cc2ncc(C#N)c(Nc3ccc(Oc4ccncc4)c(Cl)c3)c2cc1[N+](=O)[O-]` gave an IC50 greater than 5 µg/mL.

For `COc1cc2ncc(C#N)c(Nc3ccc(Sc4nc(-c5ccccc5)cs4)c(Cl)c3)c2cc1NC(=O)/C=C/CN(C)C`, the IC50 came to 0.162 µg/mL (≈ 0.258 µM).

Compound `CCOc1cc2ncc(C#N)c(Nc3ccc4c(c3)S(=O)(=O)C=C4)c2cc1OCC` showed an IC50 of 0.257 µg/mL (≈ 0.61 µM).

In turn, `COc1cc2ncc(C#N)c(Nc3ccc(Sc4nccs4)c(Cl)c3)c2cc1N` showed an IC50 of 0.663 µg/mL (≈ 1.51 µM).

Turning to `CCOc1cc2ncc(C#N)c(Nc3ccc(Cn4ccnc4)c(Cl)c3)c2cc1N`, the IC50 is greater than 5 µg/mL.

For the compound `COc1ccc2c(N(c3ccc(N(Cc4cccnc4)C(C)=O)c(Cl)c3)c3ccc(Nc4c(C#N)cnc5cc(OC)c(NC(C)=O)cc45)cc3Cl)c(C#N)cnc2c1`, the IC50 turned out to be 3.68 µg/mL (≈ 4.47 µM).

The compound `COc1cc2ncc(C#N)c(Nc3ccc(Sc4nccs4)c(Cl)c3)c2cc1NC(=O)/C=C/CN(C)C` yielded an IC50 of 0.017 µg/mL (≈ 0.0308 µM).

The compound `COc1cc2ncc(C#N)c(Nc3ccc(N(c4ccc(N(Cc5cccnc5)C(C)=O)c(Cl)c4)c4c(OC)cnc5ccccc45)c(Cl)c3)c2cc1N` returned an IC50 greater than 5 µg/mL.

In turn, `COc1cc2nc(Sc3ccc(Nc4c(C#N)cnc5cc(OC)c([N+](=O)[O-])cc45)cc3Cl)[nH]c(=O)c2cc1O` gave an IC50 of 2.28 µg/mL (≈ 3.95 µM).

The compound `CCOc1cc2ncc(C#N)c(Nc3ccc(Cn4ccnc4)c(Cl)c3)c2cc1[N+](=O)[O-]` gave an IC50 greater than 5 µg/mL.

Turning to `CCOc1cc2ncc(C#N)c(Nc3ccc(OCc4ccccc4)c(Cl)c3)c2cc1NC(=O)/C=C/CN(C)C`, the IC50 was 0.062 µg/mL (≈ 0.111 µM).

The compound `CCOc1cc2c(Nc3ccc4cn[nH]c4c3)c(C#N)cnc2cc1OC` yielded an IC50 of 0.786 µg/mL (≈ 2.19 µM).

The compound `CCOc1cc2ncc(C#N)c(Nc3ccc4c(c3)CCC4)c2cc1OCC` registered an IC50 of 0.342 µg/mL (≈ 0.916 µM).

As to `CCOc1cc2ncc(C#N)c(Nc3cc(Cl)c(Nc4nncs4)c(C(F)(F)F)c3)c2cc1NC(=O)/C=C/CN(C)C`, the IC50 was 0.728 µg/mL (≈ 1.18 µM).

In turn, `CCOc1cc2ncc(C#N)c(Nc3ccc4cc[nH]c4c3)c2cc1OCC` showed an IC50 of 0.123 µg/mL (≈ 0.33 µM).

Compound `CCOc1cc2ncc(C#N)c(Nc3cc(Cl)c(Nc4nncs4)c(C(F)(F)F)c3)c2cc1[N+](=O)[O-]` showed an IC50 of 1.79 µg/mL (≈ 3.34 µM).

In turn, `COc1cc2ncc(C#N)c(Nc3ccc(-n4ccnc4)c(Cl)c3)c2cc1NC(=O)/C=C/CN(C)C` yielded an IC50 of 0.51 µg/mL (≈ 1.02 µM).

The compound `CCOc1cc2ncc(C#N)c(Nc3ccc(Sc4nc(-c5ccccc5)cs4)c(C(F)(F)F)c3)c2cc1[N+](=O)[O-]` gave an IC50 of 0.76 µg/mL (≈ 1.28 µM).

As for `COc1cc2ncc(C#N)c(Nc3ccc(Sc4nccn4C)c(Cl)c3)c2cc1[N+](=O)[O-]`, the IC50 came to 2.88 µg/mL (≈ 6.17 µM).

For `CCOc1cc2ncc(C#N)c(Nc3ccc4c(c3)OCCO4)c2cc1OCC`, the IC50 amounted to 0.27 µg/mL (≈ 0.69 µM).

As for `COc1cc2ncc(C#N)c(Nc3ccc(Sc4nc5ccccc5c(=O)[nH]4)c(Cl)c3)c2cc1NC(=O)/C=C/CN(C)C`, the half-inhibitory concentration (IC50) was 0.34 µg/mL (≈ 0.555 µM).

Regarding `COc1cc2ncc(C#N)c(Nc3ccc(NCc4cccnc4)c(Cl)c3)c2cc1[N+](=O)[O-]`, the IC50 came out at 1.6 µg/mL (≈ 3.47 µM).

Compound `COc1cc2ncc(C#N)c(Nc3ccc(Sc4nccn4C)c(Cl)c3)c2cc1N` yielded an IC50 of 3.04 µg/mL (≈ 6.96 µM).

The compound `CCOc1cc2ncc(C#N)c(Nc3ccc(Oc4ccncc4)c(Cl)c3)c2cc1N` yielded an IC50 greater than 5 µg/mL.

`CCOc1cc2ncc(C#N)c(Nc3ccc(Sc4nc(C)cc(C)n4)c(Cl)c3)c2cc1N` displayed an IC50 of 0.76 µg/mL (≈ 1.59 µM).

Take `COc1cc2c(Nc3ccc(Sc4nccn4C)c(Cl)c3)c(C#N)cnc2cc1OCCCn1ccnn1`: the IC50 is 1.83 µg/mL (≈ 3.35 µM).

Regarding `CCOc1cc2ncc(C#N)c(Nc3ccc(Cn4ccnc4)c(Cl)c3)c2cc1NC(=O)/C=C/CN(C)C`, the IC50 was 0.95 µg/mL (≈ 1.79 µM).

Compound `COc1cc2ncc(C#N)c(Nc3ccc(Sc4nc5ccccc5c(=O)[nH]4)c(Cl)c3)c2cc1N` displayed an IC50 of 1.22 µg/mL (≈ 2.44 µM).

Turning to `CCOc1cc2ncc(C#N)c(Nc3ccc(Sc4nc(-c5ccccc5)cs4)c(C(F)(F)F)c3)c2cc1N`, the IC50 was greater than 5 µg/mL.

As for `COc1cc2ncc(C#N)c(Nc3ccc(N(Cc4cccnc4)C(C)=O)c(Cl)c3)c2cc1NC(=O)/C=C/CN(C)C`, the IC50 was 0.646 µg/mL (≈ 1.11 µM).

As to `CCOc1cc2ncc(C#N)c(Nc3ccc(Sc4nc(C)cc(C)n4)c(Cl)c3)c2cc1NC(=O)/C=C/CN(C)C`, the IC50 amounted to 0.24 µg/mL (≈ 0.408 µM).

Compound `CCOc1cc2ncc(C#N)c(Nc3ccc4c(c3)CCC4=O)c2cc1OCC` displayed an IC50 of 0.0181 µg/mL (≈ 0.0467 µM).

Regarding `COc1cc2ncc(C#N)c(Nc3ccc(-n4ccnc4)c(Cl)c3)c2cc1[N+](=O)[O-]`, the IC50 was determined as 1.79 µg/mL (≈ 4.25 µM).

For the compound `COCCOc1cc2ncc(C#N)c(Nc3ccc4cn[nH]c4c3)c2cc1OCCOC`, the IC50 was determined as 1.96 µg/mL (≈ 4.52 µM).
